Laboratory results reported in US12268665B2, “Combination of immunotherapies with MDM2 inhibitors” (ASCENTAGE PHARMA (SUZHOU) CO., LTD., priority 2018, dated 2025).

Tests used:
[1] = test system: tumor infiltrating cells in MH-22A syngeneic tumors; experiment: TIL analysis by flow cytometry, p53 wt MH-22A syngeneic tumors; format: in vivo; conditions: p53 wt MH-22A tumors
Experimental: The live/dead fixable dye (Invitrogen) was used to exclude dead cells. The FOXP3 kit from eBioscience was used for FOXP3 staining. Cells were washed and stained for 30 min on ice with indicated antibodies in MACS buffer or Brilliant staining buffer. Samples were than analyzed on Life Technology Attune NxT flow cytometer.
Mice were euthanized on day 7, and tumors were mechanically dissociated and digested with Collagenase IV (Sigma), hyaluronic acid (Sigma) and DNase (Sigma). Single-cell suspensions were prepared and stained against the indicated markers for flow cytometry analysis. Tumor samples were collected 24 hrs post last dosing.
On d7, when the mean tumor volume reached approximately 300-500 mm3, syngeneic tumors were collected and processed for TIL analysis. […] There were approximately a 1.5 to 2-fold increase relative to the control. […] Most strikingly, the frequency of M2 macrophages was reduced by the combined therapy in comparison with both control (P<0.01) and anti-PD-1 single agent groups (P<0.05).

[2] = test system: stimulated mouse splenocytes; experiment: Cytokine production in stimulated mouse splenocytes (MSD V-PLEX); format: cell-based; conditions: 250 nM, 24 h
Experimental: The effect of APG-115 on cytokine production in stimulated mouse splenocytes was investigated. Mouse splenocytes freshly isolated from mice were stimulated with 5 μg/ml plate-bound anti-CD3 and 2 μg/ml anti-CD28 in the presence of APG-115 (250 nM) or DMSO for 24 h. After the treatment, supernatants were collected from the cell cultures and then cytokines were measured by MSD V-PLEX kit which enabled to test 10 cytokines.

[3] = test system: CD4+ T cells isolated from mouse spleens; experiment: Activation of CD4+ T cells by APG-115 (flow cytometry); format: cell-based
Experimental: Effector T cells play a critical role in antitumor immunity. To investigate whether APG-115 influenced T cell function, CD4^+ T cells isolated from mouse spleens were exposed to APG-115 or solvent control DMSO.
Specifically, CD4^+ T cells were positively selected from mouse spleens using magnetic beads and stimulated with 5 μg/ml plate-bound anti-CD3 and 2 μg/ml anti-CD28 in the presence of APG-115 (250 nM) or DMSO for 24 h (Day 1) or 48 h (Day 2). The percentages of CD25-expressing and CD62L-expressing populations (top panel), and FSC (lower panel) were determined by flow cytometry.

[4] = test system: MH-22A syngeneic tumor model; experiment: Efficacy in the TIL analysis study, MH-22A model (d7); format: in vivo, mouse; conditions: APG-115 10 mg/kg p.o. q2d; anti-PD-1 5 mg/kg i.p. biw; epacadostat 100 mg/kg p.o. bid; × 6 d
Experimental: Each mouse was inoculated subcutaneously at the right flank region with MH-22A tumor cells (5×10^6) in 0.2 mL of PBS for tumor development. The treatments were started when the mean tumor size reached 60 mm^3. The test articles were administered to the tumor-bearing mice according to the regimen shown in the experimental design Table 6. The day of start dosing was defined as d1.
Mice bearing MH-22A murine hepatoma tumors were treated with various agent(s) under different regimens as indicated. Isotype control antibody was included in the control.

[5] = test system: serum MIC-1 (PD marker of TP53 activation); experiment: Phase I study CTR20170975: pharmacodynamics; format: in vivo, human
Experimental: (§1) Patients with advanced soft tissue sarcoma (STS), adenoid cystic carcinoma (ACC) or other solid tumors in China (CTR20170975) were treated with APG-115. In dose escalation, patients received APG-115 (100-200 mg) orally QOD for first 21 days of a 28-day cycle, until disease progression. Study objectives include safety (primary endpoint), pharmacokinetics (PK), pharmacodynamics (PD), and antitumor activity assessed every 8 weeks.
(§2) This is a Phase I study (CTR20170975) is designed to assess the safety, dose-limiting toxicities (DLT), the maximum tolerated dose (MTD)/recommended phase 2 dose (RP2D), pharmacokinetics (PK), pharmacodynamics (PD) profile and anti-tumor activity of orally administered APG-115 in Chinese patients with advanced soft tissue sarcoma and other solid tumors.

[6] = test system: MH-22A murine hepatoma syngeneic model; experiment: In vivo efficacy study in MH-22A model; design: species or system mouse; conditions: for RTV (Mean ± SEM) d15 / T/C (%) d15: anti-PD-1 10 mg/kg i.p. biw; for Response rate (%) d15: anti-PD-1 10 mg/kg, n=10
Experimental: Tumor volumes were measured twice weekly in two dimensions using a caliper, and the volume was expressed in mm^3 using the formula: Tumor Volume(mm^3)=0.5a×b^2 where a and b are the long and short diameters of the tumor, respectively.
Relative tumor volume (RTV) was calculated using the following formula: RTV=Vt/V1 Where V1 and Vt are the average tumor volumes on the first day of treatment (day 1) and the average tumor volumes on a certain time point (day t).
Synergy score was calculated using the following formula (Clarke R, Breast Cancer Research & Treatment, 1997, 46(2-3):255-278): Synergy score=((A/C)×(B/C))/(AB/C); A: response to treatment A; B: response to treatment B; C: response to vehicle control; AB: combination of treatment A and B.
Standard NCI procedures were used to calculate tumor parameters. Percent tumor growth inhibition (% T/C) was calculated as the mean RTV of treated tumors (T) divided by the mean RTV of control tumors (C)×100%. The percentage T/C value is an indication of antitumor effectiveness: a value of T/C<42% is considered significant antitumor activity by the NCI. A T/C value <10% is considered to indicate highly significant antitumor activity, and is the level used by the NCI to justify a clinical trial if toxicity and certain other requirements are met (termed DN-2 level activity). A body weight loss nadir (mean of group) of greater than 20%, or greater than 20% of drug deaths are considered to indicate an excessively toxic dosage.
Each mouse was inoculated subcutaneously at the right flank region with MH-22A tumor cells (5×10^6) in 0.2 mL of PBS for tumor development. The treatments were initiated when the mean tumor size reached ˜65 mm^3. The test articles were administered to the tumor-bearing mice according to the regimen shown in the experimental design Table 3. The day of start dosing was defined as d1.

[7] = test system: serum MIC-1 (PD marker of TP53 activation); experiment: Phase I study APG-115-US-001: pharmacodynamics; format: in vivo, human; conditions: within the dose range tested
Description: This Phase I study (APG-115-US-001) was designed to assess safety, toxicity, pharmacokinetics (PK), pharmacodynamics (PD), and antitumor activity of APG-115 orally in patients with advanced solid tumors in US (NCT02935907).

clinical = experiment: clinical; design: species or system human; conditions: in vivo
Experimental: as §1, §2

[8] = 250 nM, anti-CD3/anti-CD28 stimulated, 24 h or 48 h
[9] = APG-115 10 mg/kg p.o. qd, epacadostat 100 mg/kg p.o. bid

CCN1[C@@H](C(=O)NC23CCC(C(=O)O)(CC2)CC3)[C@H](c2cccc(Cl)c2F)[C@]2(C(=O)Nc3cc(Cl)ccc32)C12CCCCC2 [APG-115]
CD4+ T cells, NK cells, MDSCs, and regulatory T (Treg) cells [1]: no significant changes
expression levels of IL-1β, IL-5, KC/GRO, IL-12p70 [2]: below detection limit
inflammatory cytokines including IFN-γ, IL-2, TNF-α, IL-10 and IL-4 ([2]; anti-CD3/anti-CD28 stimulated): upregulation
caspase 3 cleavage in T cells ([3]; 250 nM of APG-115): not detected
CD25^highCD62L^low cell populations [3, 8]: rapid increase
cell size of stimulated CD4+ T cells (FSC) [3, 8]: increase in cell size
RTV (Mean) d7 [4]: 12.8
T/C (%) d7 [4]: 83%
serum MIC-1 levels ([5]; APG-115 doses ≥100 mg, preliminary): elevated from individual baseline
MIC-1 increase ([5]; within the dose range tested (Example 5)): exposure dependent
Serum MIC-1 increase ([5]; within the dose range tested (Example 8)): exposure dependent
RTV (Mean ± SEM) d15 [6, 9]: 37.8 ± 6.8
T/C (%) d15 [6, 9]: 98%
Response rate (%) d15 ([6]; APG-115 10 mg/kg, epacadostat 100 mg/kg): 0%
RTV (Mean ± SEM) d15 ([6]; APG-115 50 mg/kg p.o. qd): 36.2 ± 8.7
T/C (%) d15 ([6]; APG-115 50 mg/kg p.o. qd): 94%
Response rate (%) d15 ([6]; APG-115 50 mg/kg): 0%
antitumor activity as single agents ([6]; APG-115 10 and 50 mg/kg, epacadostat 100 mg/kg): did not exert antitumor activity
Serum MIC-1 increase [7]: exposure dependent
Tmax (clinical; human): 4 to 6 h
AUC and Cmax versus dose (clinical): generally increase dose proportionally
Cmax and AUC0-t versus dose (clinical; po): approximately dose proportional increase
